Key:
Assay type in all cases: cell-based
[1] = tested on: A549 cells; assay: Proliferation test (XTT) on A549 cells; conditions: 0 to 1000 nM, 4 days
Method: (§1) In order to check that the endocytosis of compound (7) DOX-GAL-AF is followed by release of the drug in the intracellular medium, proliferation tests were performed on Hela and A549 cells incubated in the presence of increasing concentrations (0 to 1000 nM) of doxorubicin (DOX), compound (5) (DOX-GAL) and compound (7) (DOX-GAL-AF) for 4 days.
(§2) The cell proliferation kit II (XTT; Roche) was used to evaluate the cellular proliferation. The kit was used following the manufacturer's recommendations.
(§3) In brief, 3×10^3 cells/well were placed on 96 culture plates and then in 100 μl of medium,
(§4) The cells were cultured as previously indicated.
(§5) The cells were cultured for 24 hours before addition of the compounds tested in the indicated concentration.
(§6) After 4 days of treatment, 50 μl of XTT marking mixture were added to the well. The cells were then incubated for 4 hours at 37° C. before the absorbance was determined at 480 nm.
(§7) In order to check that the enzymatic activation of compound (7) DOX-GAF-AF can effectively take place in the cellular environment, cytotoxicity tests were repeated in a culture medium previously supplemented with β-galactosidase (E. coli) (40 U·mL^−1) (curves in dotted lines).

[2] = tested on: Hela cells; assay: Proliferation test (XTT) on Hela cells; conditions: 0 to 1000 nM, 4 days
Method: as §1, §2, §3, §4, §5, §6, §7

[3] = tested on: A549 cells expressing little or none of these receptors; assay: Internalization monitored by confocal microscopy (doxorubicin fluorescence) in A549 cells; conditions: 10 μM
Method: (§8) Compound (7) was tested on two cell lines, the HeLa cells, expressing the folic acid receptor (FR), and the A549 cells expressing little or none of these receptors.
(§9) The HeLa and A549 cells were cultured in RPMI 1640 medium supplemented with 10% fetal calf serum (InVitrogen) at 37° C. in an atmosphere containing 5% CO2.
(§10) For confocal microscopy experiments, the cells were cultured in a glass-bottomed bowl.
(§11) The cells were incubated for 1 hour in the presence or absence of 1 μm of folic acid before being treated with either a buffer solution (control), or doxorubicin at 10 μM, or with a doxorubicin-galactose (DOX-GAL) conjugate, compound (5), in a concentration of 10 μM, or compound (7) (DOX-GAL-AF) in a concentration of 10 μM, or compound (7) in the presence of folic acid with respective concentrations of 10 μM.
(§12) After treatment, the cells were rinsed with PBS and fixed with a PBS-3.7% formaldehyde solution for 20 minutes, at room temperature. […]
(§13) The internalization by endocytosis of doxorobucin of the compounds (5) and (7) and of compound (7) in the presence of folic acid (AF) was monitored by confocal microscopy using the fluorescence of doxorubicin in the Hela cells and in the A549 cells.

[4] = tested on: HeLa cells, expressing the folic acid receptor (FR); assay: Internalization monitored by confocal microscopy (doxorubicin fluorescence) in HeLa cells; conditions: 10 μM
Method: as §8, §9, §10, §11, §12, §13

SMILES: C#CCC(OC(=O)NC1CC(O[C@H]2C[C@](O)(C(=O)CO)Cc3c(O)c4c(c(O)c32)C(=O)c2c(OC)cccc2C4=O)OC(C)C1O)c1ccc(O[C@@H]2OC(CO)[C@H](O)C(O)C2O)c([N+](=O)[O-])c1 (some centres unmarked) [Compound 5]
- toxicity / inhibition of proliferation (in words) [1]: ineffective on the two cell lines
- inhibition of proliferation (in words) [2]: ineffective on the two cell lines
- internalization by endocytosis (fluorescence of doxorubicin, confocal microscopy) [3]: not internalized in any of the cell lines
- internalization by endocytosis (fluorescence of doxorubicin, confocal microscopy) [4]: not internalized in any of the cell lines

SMILES: COc1cccc2c1C(=O)c1c(O)c3c(c(O)c1C2=O)C[C@@](O)(C(=O)CO)C[C@@H]3O[C@H]1C[C@H](N)[C@H](O)[C@H](C)O1 [doxorubicin]
- toxicity / inhibition of proliferation (in words) [1]: inhibits the proliferation of these two lines
- inhibition of proliferation (in words) [2]: inhibits the proliferation of these two lines
- internalization by endocytosis (fluorescence of doxorubicin, confocal microscopy) [3]: penetrates non-specifically through the membranes of the two cell lines
- internalization by endocytosis (fluorescence of doxorubicin, confocal microscopy) [4]: penetrates non-specifically through the membranes of the two cell lines

Source: patent US9000135B2, “Self-reactive arms and prodrugs comprising same” (Centre Nationale de Recherche Scientifique, priority 2010, dated 2015)
